Measurements from paper PMC4166900, “Covalent modification of a ten-residue cationic antimicrobial peptide with levofloxacin” (Frontiers in Chemistry, 2014).
Read-outs that look alike come from different tables or passages of the source. Marks after values point to notes of the source that are not given here. Peptide text beside a SMILES is read from it. * marks the point of attachment. Levofloxacinoyl = C[C@H]1COc2c(N3CCN(C)CC3)c(F)cc3c(=O)c(C(=O)*)cn1c23

Legend:
[1] = system: B. cereus membranes; experiment: DiSC(3)5 membrane depolarization assay; type: cell-based; conditions: B. cereus 2 × 10^7 CFU/mL; 10 mM NaPO4 pH 7.4; 33 μM P4LC and Pep-4, 126 μM Pep-4/LVFX, 93 μM LVFX; melittin 33 μM = maximal; monitored 30 min; triplicate
Protocol: (§1) Enumerated frozen aliquots of E. coli and B. cereus cells were thawed and washed 3x with buffer (10 mM NaPO4, pH 7.4). The washed cells were diluted in 10 mM NaPO4 buffer containing 10 ug/mL DiSC(3)5 to afford a concentration of 4 × 10^7 CFU/mL. Bacterial suspension was added to the wells of a black polypropylene microtiter plate (Greiner Bio-One) in 100 μL aliquots, and fluorescence was monitored (rt, with lid on) using a SpectraMax Gemini EM plate-reading fluorometer (622 nmex/ 670 nmem) until fluorescence quenching stabilized and maximal DiSC(3)5 uptake was achieved. […] The final concentrations of each assessed compound in the wells were 33 μM (P4LC and Pep-4), 126 μM (Pep-4/LVFX), and 93 μM (LVFX), while final bacterial concentrations were 2 × 10^7 CFU/mL. Assays were performed in triplicate for each compound assessed. […] The fluorescence kinetics data sets were normalized by setting emitted fluorescence to 0 at t = 0 s and presenting fluorescence intensity values as a fraction of maximal fluorescence observed for melittin.
(§2) For membrane depolarization and perturbation experiments, fluorescence data was analyzed by comparing best-fit curves (GraphPad Prism). Fluorescence kinetic curves were fit to a polynomial regression model (equation 4) to allow for statistical comparison of the fluorescence data via an F test, with all four best-fit parameters used as criteria. […]

[2] = system: E. coli membranes; experiment: DiSC(3)5 membrane depolarization assay; type: cell-based; conditions: E. coli 2 × 10^7 CFU/mL; 10 mM NaPO4 pH 7.4; 33 μM P4LC and Pep-4, 126 μM Pep-4/LVFX, 93 μM LVFX; melittin 33 μM = maximal; monitored 30 min; triplicate
Protocol: as §1, §2

[3] = system: B. cereus membranes; experiment: SYTOX green membrane perturbation assay; type: cell-based; conditions: 10 mM NaPO4 pH 7.4, 33 μM P4LC, 33 μM Pep-4, 126 μM Pep-4/LVFX, 93 μM LVFX, melittin = maximal, biological triplicates
Protocol: (§3) Enumerated frozen aliquots of E. coli and B. cereus cells were thawed and washed 3x with buffer (10 mM NaPO4, pH 7.4). The washed cells were diluted to a concentration of 4 × 10^7 CFU/mL in 10 mM NaPO4 (pH 7.4) buffer containing 5 μM SYTOX Green, and the resulting suspension then stored in the dark for ~20 min. The bacterial suspension was then distributed in 100 μL aliquots to wells of a black polypropylene microtiter plate (Greiner Bio-One). […] The fluorescence of each well was immediately monitored (without the lid) using a SpectraMax Gemini EM plate-reading fluorometer (485/520 nmem). […] A negative control containing only bacteria and SYTOX Green was used to determine background fluorescence, and maximal perturbation of the bacterial cell membranes was established using melittin. The fluorescence kinetics data sets were normalized by setting emitted fluorescence to 0 at t = 0 s and presenting fluorescence intensity values as a fraction of maximal fluorescence observed for melittin.
as §2

[4] = system: E. coli membranes; experiment: SYTOX green membrane perturbation assay; type: cell-based; conditions: 10 mM NaPO4 pH 7.4, 33 μM P4LC, 33 μM Pep-4, 126 μM Pep-4/LVFX, 93 μM LVFX, biological triplicates
Protocol: as §3, §2

[5] = Distribution coefficient (1-octanol / 10 mM NaPO4 pH 7.4); conditions: for logD at 10 min: pH 7.4
Protocol: In these experiments, P4LC, Pep-4 or free LVFX dissolved in 100 μL of 10 mM NaPO4 (pH 7.4) buffer was combined with 100 μL of 1-Octanol in a 1.5 mL low binding polypropylene microcentrifuge tube (Corning). Each tube was vortexed for 10 min and the contained solvent allowed to settle. […] The maximal concentrations of Pep-4 and P4LC in the calibration curves were also established using amino acid analysis (UC Davis Genome Center Proteomics Core Facility). […] Indolicidin and melittin were used as reference peptides in these studies. […] The D7.4 values generated for P4LC, Pep-4, LVFX, indolicidin, and melittin were calculated (equation 5) based on their respective concentrations in the aqueous phase ([peptide]PO4buffer) of the water/octanol biphasic system and their concentrations in the initial stock solution ([peptide]total). Values are averaged from six replicates.
(5) logD7.4=log(([peptide]total−[peptide]PO4buffer)/([peptide]PO4buffer)) =log ([peptide]octanol/[peptide]PO4buffer)
The concentration ratios of each compound between the two liquid phases were used to establish distribution coefficients (D7.4). Indolicidin and melittin were used as reference peptides in these studies.

[6] = system: B. cereus (#11778)
Protocol: (§4) Frozen enumerated aliquots of bacteria were thawed and diluted into sterile buffer to a bacterial concentration of 2 × 10^6 CFU/mL. Wells of a 96-well polypropylene microtiter plate (Greiner Bio-One) were charged with 50 μL aliquots of buffer solutions containing serially diluted peptide, conjugate, or drug followed by 50 μL aliquots of diluted bacterial cells. Assays for each compound were prepared in triplicate. Control wells were prepared where the peptide/conjugate/drug solution was replaced with an equal volume of buffer alone. Following addition of bacteria, the microtiter plates were incubated for 3 h at either 37°C (E. coli) or 30°C (B. cereus). […] Plates were then immediately placed in a SpectraMax Gemini EM plate-reading fluorometer for overnight monitoring of fluorescence (530 nmex/590 nmem) at either 37°C (E. coli) or 30°C (B. cereus) with intermittent shaking. Onset time of half maximal fluorescence (T0.5) observed for each well was computed using the microplate data analysis software. In order to determine bacterial survival, it was necessary to establish correlations between bacterial concentration (CFU/mL) and T0.5 values. Therefore, standard curve equations were generated in preliminary experiments using bacterial suspensions serially diluted (~10^6 CFU/mL—10^3 CFU/mL) in each of the three buffers used in the antibacterial assays.
(§5) (2) log(CFU/mLB.cereus)=−1.00 × 10^−4(T0.5)+Yint
(§6) (3) Bacterial Survival=Smin+(Smax−Smin)/ (1+10^log(EC50)−log(PC)∗HS)
(§7) Assays were conducted under three different ionic strength (μ) buffer conditions in order to assess the effect salt concentration had on antibacterial effectiveness. The lowest ionic strength buffer used was 10 mM NaPO4, pH 7.4, which corresponded to 26 mM total ionic strength. […] Bacterial survival results were plotted against the log of the concentration of conjugate, peptide, or free drug. EC50 values for each assessed compound were calculated by fitting the survival data to equation 3, which models typical sigmoidal dose-response behavior using a variable Hill slope. An F test was used to assess statistical significance, with the alpha level set to 0.05.

[7] = system: E. coli (#25922); experiment: microbe, parasite or virus in culture; conditions: Escherichia coli, 3 h, pH 7.4, read-out: EC50 (95% confidence interval), E. coli, resazurin read-out, triplicate
Protocol: as §4
(§8) (1) log(CFU/mLE.coli)=−2.00 × 10^−4(T0.5)+Yint
as §6, §7

[8] = system: B. cereus (#11778); experiment: microbe, parasite or virus in culture; conditions: Bacillus cereus, 3 h
Protocol: as §4, §5, §6, §7

[9] = system: E. coli (#25922); conditions: for EC50: read-out: EC50 (95% confidence interval), E. coli, resazurin read-out, triplicate
Protocol: as §4, §8, §6, §7

[10] = read-out: EC50 (95% confidence interval), B. cereus, ionic strength μ2 = 111 mM (10 mM NaPO4 : cation-adjusted PBS 1:1, pH 7.4), 3 h at 30°C, resazurin read-out, triplicate, * = estimated, lower survival boundary set to 0
[11] = ionic strength μ1 = 26 mM (10 mM NaPO4, pH 7.4), 3 h incubation at 37°C
[12] = ionic strength μ2 = 111 mM (10 mM NaPO4 : cation-adjusted PBS 1:1, pH 7.4), 3 h at 37°C
[13] = ionic strength μ3 = 167 mM (cation-adjusted PBS, pH 7.4), 3 h at 37°C, * = estimated, lower survival boundary set to 0

Compound: C[C@H]1COc2c(N3CCN(C)CC3)c(F)cc3c(=O)c(C(=O)O)cn1c23 [LVFX, Levofloxacin]
- mean maximal DiSC(3)5 fluorescence relative to melittin (membrane depolarization) [1]: 2.5%
- mean maximal DiSC(3)5 fluorescence relative to melittin (membrane depolarization) [2]: 8.4%
- SYTOX Green fluorescence increase relative to melittin (membrane perturbation) [3]: No increase in fluorescence
- mean maximal SYTOX Green fluorescence relative to melittin (membrane perturbation) [4]: No increase in fluorescence
- D7.4 fold greater than P4LC ([5]; 1-octanol / 10 mM NaPO4 pH 7.4, ratio of D7.4 values): about 4.5 fold
- EC50 [6, 10]: 0.591 µM
- EC50 [7, 11]: 0.00281 µM
- EC50 [7, 12]: 0.00223 µM
- EC50 [7, 13]: 0.00277 µM
- EC50 ([8]; pH 7.4, read-out: EC50 (95% confidence interval)): 0.981 µM
- EC50 ([8]; pH 7.4, read-out: EC50 (95% confidence interval), B. cereus, ionic strength μ1 = 26 mM (10 mM NaPO4, pH 7.4), 3 h incubation at 30°C, resazurin read-out, triplicate): 0.212 µM

Compound: C[C@H]1COc2c(N3CCN(C)CC3)c(F)cc3c(=O)c(C(=O)NCCCC[C@H](NC(=O)[C@H](CCCCNC(=O)c4cn5c6c(c(N7CCN(C)CC7)c(F)cc6c4=O)OC[C@@H]5C)NC(=O)[C@H](CCCNC(=N)N)NC(=O)[C@H](CCCNC(=N)N)NC(=O)[C@H](CO)NC(=O)[C@H](CO)NC(=O)[C@H](CCCNC(=N)N)NC(=O)[C@H](CCCNC(=N)N)NC(=O)CNC(=O)[C@H](CCCNC(=N)N)NC(=O)c4cn5c6c(c(N7CCN(C)CC7)c(F)cc6c4=O)OC[C@@H]5C)C(N)=O)cn1c23 [P4LC] (Levofloxacinoyl-RGRRSSRRK(Levofloxacinoyl)K(Levofloxacinoyl)-NH2)
- logD at 10 min [5]: -1.65
- EC50 [9, 11]: 0.0167 µM
- EC50 [9, 12]: 1.71 µM
- EC50 [9, 13]: 1.51 µM
- EC50 ([6]; read-out: EC50 (95% confidence interval), B. cereus, ionic strength μ1 = 26 mM (10 mM NaPO4, pH 7.4), 3 h incubation at 30°C, resazurin read-out, triplicate): 0.0218 µM
- EC50 [6, 10]: 2.17 µM
- EC50 ([6]; read-out: EC50 (95% confidence interval), B. cereus, ionic strength μ3 = 167 mM (cation-adjusted PBS, pH 7.4), 3 h at 30°C, resazurin read-out, triplicate, * = estimated, lower survival boundary set to 0): 40 µM

Compound: N=C(N)NCCC[C@H](NC(=O)CNC(=O)[C@@H](N)CCCNC(=N)N)C(=O)N[C@@H](CCCNC(=N)N)C(=O)N[C@@H](CO)C(=O)N[C@@H](CO)C(=O)N[C@@H](CCCNC(=N)N)C(=O)N[C@@H](CCCNC(=N)N)C(=O)N[C@@H](CCCCN)C(=O)N[C@@H](CCCCN)C(N)=O [Pep-4] (H-RGRRSSRRKK-NH2)
- logD at 10 min [5]: -2.57
- EC50 (95% confidence interval) ([9]; #25922, 3 h, pH 7.4): ~29.4 ^* (21.9–35.4)^* μM
- EC50 ([6]; #11778, 3 h, pH 7.4): 0.0271 µM

Compound: CC[C@H](C)[C@H](N)C(=O)N[C@@H](CC(C)C)C(=O)N1CCC[C@H]1C(=O)N[C@@H](Cc1c[nH]c2ccccc12)C(=O)N[C@@H](CCCCN)C(=O)N[C@@H](Cc1c[nH]c2ccccc12)C(=O)N1CCC[C@H]1C(=O)N[C@@H](Cc1c[nH]c2ccccc12)C(=O)N[C@@H](Cc1c[nH]c2ccccc12)C(=O)N1CCC[C@H]1C(=O)N[C@@H](Cc1c[nH]c2ccccc12)C(=O)N[C@@H](CCCN=C(N)N)C(=O)N[C@@H](CCCN=C(N)N)C(N)=O [indolicidin]
- logD at 10 min [5]: 2.3

Compound: CC[C@H](C)[C@H](NC(=O)CN)C(=O)NCC(=O)N[C@@H](C)C(=O)N[C@H](C(=O)N[C@@H](CC(C)C)C(=O)N[C@@H](CCCCN)C(=O)N[C@H](C(=O)N[C@@H](CC(C)C)C(=O)N[C@H](C(=O)N[C@H](C(=O)NCC(=O)N[C@@H](CC(C)C)C(=O)N1CCC[C@H]1C(=O)N[C@@H](C)C(=O)N[C@@H](CC(C)C)C(=O)N[C@H](C(=O)N[C@@H](CO)C(=O)N[C@@H](Cc1c[nH]c2ccccc12)C(=O)N[C@H](C(=O)N[C@@H](CCCCN)C(=O)N[C@@H](CCCNC(=N)N)C(=O)N[C@@H](CCCCN)C(=O)N[C@@H](CCCNC(=N)N)C(=O)N[C@@H](CCC(N)=O)C(=O)N[C@@H](CCC(N)=O)C(N)=O)[C@@H](C)CC)[C@@H](C)CC)[C@@H](C)O)[C@@H](C)O)C(C)C)C(C)C [melittin, Melittin]
- logD at 10 min [5]: -0.46
